Columns and labels:
Format in all cases: cell-based
[1] = tested on: TNFα from human mononuclear cells; experiment: TNF-α synthesis by human mononuclear cells (ELISA of supernatant); conditions: 18 h, mean of three donors
Description: Venous blood was obtained from healthy volunteers and Ficoll-Hypaque centrifugation, fractionated mononuclear cells. The mononuclear cells were washed and resuspended in endotoxic-free RPMI 1640 medium supplemented with 10% fetal calf serum. 30×10^6 cells were aliquoted into plates p-60 (Nunc, Denmark). The cells were incubated with 14 or 28 μg/ml LALF at 37° C. for 18 hours in 5% CO2 and then centrifuged at 3000 rpm during 5 min. The synthesis of TNFα in the supernatant was determined by specific enzyme-linked immunoadsorbent assay (ELISA), kindly provided by Dr. W. Buurman (University Hospital Maastrich, The Netherlands).

[2] = tested on: Mengo virus on cell line Hep-2; experiment: Antiviral effect: inhibition of the cytopathic effect of Mengo virus on cell line Hep-2; conditions: 24 h pre-incubation; for Antiviral effect, 1: experiment 1; for Antiviral effect, 2: experiment 2; for Antiviral effect, 3: experiment 3; for Antiviral effect, Mean: mean of 3
Description: (§1) Then the cells were washed with saline solution and infected with […] of Mengo virus, provide by Institute of Molecular Biology, University of Zurich, which is multiplied in the cell line L929 murine fibroblasts. 18 h later degree of cell destruction was measured by fixation and staining, generally with crystal violet, for reading of cytophatic effect was used a photometer Ultramicroanalytical System (SUMA). A computer program in Pascal UCSD language for the microcomputer system was developed for all calculations and corrections (Ferrero et al., 1994, Biotecnologia Aplicada. Vol. 1:). In this case serial dilution's of human γ-IFN 70 000 IU/ml (MRI, Freeze-dried Reference Human Recombinant Gamma Interferon) was used as standard in order to define unit of antiviral activity. For this reason the antiviral protection shown by the peptide is related to International Units of γ-IFN (Ul/ml). As a negative control were used different peptides from proteins that bind endotoxin. LPS at 10 ng/ml was used as a positively control because is well known that it induced the production of IFNs (Manthey et al., 1994, J. Immunology. Vol. 153: 2653-2663). One unit of antiviral activity is define as the quantity of IFN able to produce an 50% inhibition of the viral replication.

human mononuclear cells = experiment: Antiviral effect on Hep-2 cells of supernatant from human mononuclear cells stimulated with peptide; conditions: for Antiviral effect of supernatant, 1: supernatant on Hep-2, experiment 1; for Antiviral effect of supernatant, 2: supernatant on Hep-2, experiment 2; for Antiviral effect of supernatant, 3: supernatant on Hep-2, experiment 3; for Antiviral effect of supernatant, Mean: supernatant on Hep-2, mean of 3
Description: as §1
Venous blood was obtained from healthy volunteers and Ficoll-Hypaque centrifugation, fractionated mononuclear cells. The mononuclear cells were washed and resuspended in endotoxin-free RPMI-1640 culture medium supplemented with 10% fetal calf serum. Concentration of 2×10^6 cells/ml were aliquoted into 24-well microtiter plates (Nunc, Denmark). The cells were then incubated with 14 and 28 μg/ml of different peptides: Limulus anti-LPS factor31-52 (LALF), Lipopolysaccharide Binding Protein86-99 (LBP) and 18 kDa Cationic Antimicrobial Protein108-128 (CAP-18), at 37° C. for 18 hours in 5% CO2. The cells were centrifuged at 3000 rpm for 5 min and then serial dilutions of supematants were assays for antiviral activity using the procedures described in the example 2.

[3] = mononuclear cells stimulated with 14 μg/ml for 18 h
[4] = mononuclear cells stimulated with 28 μg/ml for 18 h

Substance: CAP-18 [reference compound]
- TNF - α ([1]; 14 μg/ml): 0.76 ng/mL
- TNF - α ([1]; 28 μg/ml): 0.75 ng/mL
- Antiviral effect, 1 ([2]; Hep-2, 14 μg/ml): 9 IU/ml γ-IFN
- Antiviral effect, 2 ([2]; Hep-2, 14 μg/ml): 8.7 IU/ml γ-IFN
- Antiviral effect, 3 ([2]; Hep-2, 14 μg/ml): 9.2 IU/ml γ-IFN
- Antiviral effect, Mean ([2]; Hep-2, 14 μg/ml): 8.9 IU/ml γ-IFN
- Antiviral effect, 1 ([2]; Hep-2, 28 μg/ml): 12.2 IU/ml γ-IFN
- Antiviral effect, 2 ([2]; Hep-2, 28 μg/ml): 9 IU/ml γ-IFN
- Antiviral effect, 3 ([2]; Hep-2, 28 μg/ml): 9 IU/ml γ-IFN
- Antiviral effect, Mean ([2]; Hep-2, 28 μg/ml): 10.9 IU/ml γ-IFN
- Antiviral effect of supernatant, 1 (human mononuclear cells; [3]): 7.8 IU/ml γ-IFN
- Antiviral effect of supernatant, 2 (human mononuclear cells; [3]): 8 IU/ml γ-IFN
- Antiviral effect of supernatant, 3 (human mononuclear cells; [3]): 11 IU/ml γ-IFN
- Antiviral effect of supernatant, Mean (human mononuclear cells; [3]): 8.93 IU/ml γ-IFN
- Antiviral effect of supernatant, 1 (human mononuclear cells; [4]): 8.2 IU/ml γ-IFN
- Antiviral effect of supernatant, 2 (human mononuclear cells; [4]): 9 IU/ml γ-IFN
- Antiviral effect of supernatant, 3 (human mononuclear cells; [4]): 9.6 IU/ml γ-IFN
- Antiviral effect of supernatant, Mean (human mononuclear cells; [4]): 8.93 IU/ml γ-IFN

Reference: patent US6632793B1, “Immunological activity for a peptide of the limulus anti-LPS factor” (Centro de Ingenieria Genetica y Biotecnologia, priority 1997, dated 2003)
